Test [1] is described as follows: Inhibition of Helicobacter pylori beta-carbonic anhydrase preincubated for 15 mins by stopped flow CO2 hydration assay.
Test [2] can be described thus: Inhibition of Flaveria bidentis beta-carbonic anhydrase-1 preincubated for 15 mins by stopped flow CO2 hydration assay.

On to `NS(=O)(=O)O` [SULFAMATE], for which the figures for the Ki in test [1] and in test [2] were 94 µM and 5 µM, respectively.
For the compound `N=C=[Se]` [SODIUM ISOSELENOCYANATE], the inhibitory constant (Ki) – broadly, a measure of affinity in units of concentration, obtained from inhibition or displacement – came to 970 µM in test [1] and 880 µM in test [2].
On the same counts, the results for `CCN(CC)C(=S)S` [DITIOCARB SODIUM] are 7.4 µM and 8 µM.
As for `O=[N+]([O-])[O-].[Na+]` [SODIUM NITRATE], the Ki in test [1] and in test [2] was 780 µM each time.
With `[N-]=[N+]=[N-]` [SODIUM AZIDE], the Ki in test [1] turned out to be 800 µM; in test [2], 460 µM.
In the case of `OB(O)c1ccccc1` [PHENYLBORONIC ACID], the Ki in test [1] turned out to be 73 µM; in test [2] it was 8 µM.
In the case of `S` [SODIUM HYDROSULFIDE], the results for the Ki in test [1] and in test [2] were 580 µM and 860 µM, respectively.
On the same counts, the results for `O=S(=O)([O-])[O-].[Na+].[Na+]` [SODIUM SULFATE ANHYDROUS] are 570 µM and 620 µM.
Take `O=[Te](=O)(O)O` [SODIUM TELLURATE]: the Ki in test [1] came out at 450 µM; in test [2], 900 µM.
Turning to `N=C=S` [SODIUM ISOTHIOCYANATE], the Ki in test [1] was determined as 680 µM; in test [2] it was 830 µM.
Regarding `O=[As](O)(O)c1ccccc1` [PHENYLARSONIC ACID], the Ki in test [2] is 6 µM.
On to `NS(N)(=O)=O` [SULFAMIDE], for which the Ki was 72 µM in test [1] and 4 µM in test [2].
With `O=[Se](=O)(O)O` [SODIUM SELENATE], the Ki in test [1] came out at 650 µM; in test [2], 24500 µM.
For the compound `[Br-].[Na+]` [SODIUM BROMIDE], the Ki in test [1] was determined as 380 µM; in test [2], 670 µM.
Turning to `O=S(=O)(O)ONOS(=O)(=O)O` [SODIUM IMINODISULFATE], the Ki came out at 700 µM in test [1] and 50900 µM in test [2].
`[Cl-].[Na+]` [SODIUM CHLORIDE]: the figures for the Ki in test [1] and in test [2] were 560 µM and 740 µM, respectively.
Take `F[B-](F)(F)F.[Na+]` [SODIUM TETRAFLUOROBORATE]: the Ki in test [1] and in test [2] was over 200000 µM throughout.
As to `[I-].[Na+]` [SODIUM IODIDE], the Ki in test [1] is 630 µM; in test [2], 710 µM.
With `O=NO` [SODIUM NITRITE], the inhibitory constant (Ki) was 670 µM in test [1] and 570 µM in test [2].
On the same counts, the results for `S=C(S)S` [SODIUM CARBONOTRITHIOATE] are 210 µM and 60 µM.
`O=C([O-])O.[Na+]` [SODIUM BICARBONATE]: in test [2], the inhibition constant Ki amounted to 660 µM.
Take `CC(=O)Nc1nnc(S(N)(=O)=O)s1` [ACETAZOLAMIDE]: the Ki in test [2] is […].
Regarding `O=P(O)(O)OP(=O)(O)O` [SODIUM PYROPHOSPHATE], the Ki came to 750 µM in test [1] and 830 µM in test [2].
Take `O=BOB(O)OB(O)OB=O` [SODIUM TETRABORATE]: the values for the Ki in test [1] and in test [2] were 680 µM and 860 µM, respectively.
`O=S([O-])O.[Na+]` [SODIUM BISULFITE]: the values for the Ki in test [1] and in test [2] were 630 µM and 55300 µM, respectively.
In the case of `O=C([O-])[O-].[Na+].[Na+]` [SODIUM CARBONATE], the inhibitory constant (Ki) turned out to be 420 µM in test [1] and 840 µM in test [2].
For the compound `[O-][Cl+3]([O-])([O-])O` [SODIUM PERCHLORATE], the Ki in test [1] is 6500 µM; in test [2], over 200000 µM.
On the same counts, the results for `O=S(=O)(O)OOS(=O)(=O)O` [SODIUM PERSULFATE] are 930 µM and 870 µM.
On the same counts, the results for `[F-].[Na+]` [SODIUM FLUORIDE] are 670 µM and 710 µM.

Values taken from ChEMBL document CHEMBL2331417, “Kinetic and anion inhibition studies of a β-carbonic anhydrase (FbiCA 1) from the C4 plant Flaveria bidentis” (Bioorg Med Chem Lett, 2013).
